Laboratory results published in patent publication EP1577294A1, “S-SUBSTITUTED N-1- (HETERO)ARYL ALKYL-N - (HETERO)ARYL ALKYLYSOTHIOCARBAMIDES, METHOD FOR THE PRODUCTION THEREOF, PHYSIOLOGICALLY ACTIVE S-SUBSTITUTED N-1- (HETERO )ARYL ALKYL-N - (HETERO)ARYL ALKYLYSOTHIOCARBAMIDES,A PHARMACEUTICAL COMPOUND AND CURING METHOD” (Institut Fiziologicheski Aktivnykh Veschestv Rossiyskov …, priority 2002, dated 2004).

Assays:
NMDA receptors = test: Patch-clamp: blockade of NMDA-induced currents in cerebral cortex neurons; assay type: cell-based, rat; conditions: for Blockade of NMDA-induced currents (%): neurons of the cerebral cortex
Text: (§1) The first was to determine the potentiating effect of new compounds on AMPA- and kainate-induced transmembrane currents in neurons of the Purkinje cerebellum of rats, and also blockade of NMDA-induced currents in the neurons of the cerebral cortex of rats;
(§2) Method for assessing properties of the compounds potentiating AMPA/KA-induced currents and blocking NMDA-induced currents.
(§3) Transmembrane currents were induced by activation of AMPA/KA receptors by applying solutions of kainic acid, the agonist of these receptors, and by activation of NMDA receptors by applying solutions of N-methyl-D-aspartic acid (NMDA), the agonist of these receptors, using the rapid superfusion method. Currents were recorded with the aid of borosilicate microelectrodes (resistance 1.5-2.5 mohm) filled with the following composition (in mM): KCl 100.0, EGTA 11.0, CaCl2 1.0, MgCl2 1.0, HEPES 10.0, ATP 5.0, pH 7.2.
(§4) An EPC9 (HEKA, Germany) was used for recording. Currents were recorded on a Pentium-100 PC hard disc using the Pulse program, also purchased from the HEKA company. The results were processed with the aid of the Pulsefit program (HEKA).

AMPA/KA receptors = test: Patch-clamp: potentiation of kainate-induced transmembrane currents in freshly isolated Purkinje neurons; assay type: cell-based, rat; conditions: for Potentiation of kainate-induced currents (%): Purkinje neurons of the rat cerebellum
Description: as §1, §2
The experiments were performed using the patch-clamp method on freshly-isolated Purkinje neurons taken from the cerebellum of rats (aged 14-16 days). A modified method was used for isolation. Slices of cerebellum 400-600 µm in thickness were placed in a thermostat-controlled chamber with a volume of 10 ml. The solution for isolation had the following composition (in mM): NaCl 150.0, KCl 5.0, CaCl2 2.0, MgSO4×7H2O 2.0, HEPES 10.0, glucose 15.0, pH 7.42. The slices were incubated in this solution for 60 minutes, after which this solution was replaced by a similar solution containing pronase (2 mg/ml) and collagenase (1 mg/ml) and incubation was continued for 70 minutes. After washing with the original solution for 20 minutes, the slices were placed in a Petri dish and dissociated mechanically with the aid of a Pasteur pipette. The solutions were continuously bubbled with 100% O2 at t° 34°C. The Purkinje neurons were placed in a working chamber with a volume of 0.6 ml. The working solution has the composition (in mM): NaCl 150.0, KCl 5.0, CaCl2 2.6, MgSO4×7H2O 2.0, HEPES 10.0, glucose 15.0, pH 7.36.
as §3, §4
The application of kainate induces inward transmembrane currents in the Purkinje neurons. Addition of the compounds to the perfusion solution elicits an increase in the amplitude of the currents. This increase depends on the compound, on its concentration, and on the time which has passed since the start of application of the substance.

Br.O=C(O)c1ccc(CSC(=NCc2ccccc2)NCc2ccccc2)cc1 [Compound 15, S-4-Carboxybenzyl-N-benzyl-N'-benzylisothiocarbamide hydrobromide]
Blockade of NMDA-induced currents (%) (NMDA receptors; at 0.5-30 µM): 0 at 0.5-30 µM % | Potentiation of kainate-induced currents (%) (AMPA/KA receptors; at 0.5-30 µM): 0 at 0.5-30 µM %

CC12CC3CC(C)(C1)CC(N)(C3)C2 [Memantine, reference compound]
Blockade of NMDA-induced currents (%) (NMDA receptors; at 17 µM): 50% at 17 µM | Potentiation of kainate-induced currents (%) (AMPA/KA receptors; at 30 µM): 15% at 30 µM

NS(=O)(=O)c1cc2c(cc1Cl)NC(C1CC3C=CC1C3)NS2(=O)=O (stereo not shown) [Cyclothiazide, reference compound]
Blockade of NMDA-induced currents (%) (NMDA receptors; at 1-30 µM): 0 at 1-30 µM % | Potentiation of kainate-induced currents (%) (AMPA/KA receptors; at 1 µM): 20% at 1 µM

CCSC(=NCc1ccccc1)NCc1ccccc1.I [Compound 12, S-Ethyl-N-benzyl-N'-benzylisothiocarbamide hydriodide]
Blockade of NMDA-induced currents (%) (NMDA receptors; at 0.5-30 µM): 0 at 0.5-30 µM % | Potentiation of kainate-induced currents (%) (AMPA/KA receptors; at 0.5-30 µM): 0 at 0.5-30 µM %

c1ccc(CN=C(NCc2ccccc2)SCc2ccccc2)cc1 [Compound 13, S-Benzyl-N-benzyl-N'-benzylisothiocarbamide]
Blockade of NMDA-induced currents (%) (NMDA receptors; at 0.5-30 µM): 0 at 0.5-30 µM % | Potentiation of kainate-induced currents (%) (AMPA/KA receptors; at 0.5-30 µM): 0 at 0.5-30 µM %

Br.c1ccc(CCSC(=NCc2ccccc2)NCc2ccccc2)cc1 [Compound 18, S-2-Phenylethyl-N-benzyl-N'-benzylisothiocarbamide hydrobromide]
decrease in the NMDA-induced currents (NMDA receptors; 3 µM, observed range (average given separately)): 25-35% | Washing out time that returns the amplitude of the NMDA-induced currents to the control value (NMDA receptors; NMDA-induced currents, cerebral cortex neurons): 3 to 6 min | Blockade of NMDA-induced currents (%) (NMDA receptors; at 3 µM (average), hydrobromide): 30% at 3 µM, | Blockade of NMDA-induced currents (%) (NMDA receptors; at 3 µM (average), listed as compound 18, hydrobromide): 30% | Blockade of NMDA-induced currents (%) (NMDA receptors; at 10 µM, hydrobromide): 100% at 10 µM | Blockade of NMDA-induced currents (%) (NMDA receptors; at 10 µM, listed as compound 18, hydrobromide): 100% | increase in kainate-induced currents (AMPA/KA receptors; 20 µM, observed range (average given separately)): 8-12% | Potentiation of kainate-induced currents (%) (AMPA/KA receptors; at 20 µM (average), hydrobromide): 10% at 20 µM | Potentiation of kainate-induced currents (%) (AMPA/KA receptors; at 20 µM (average), listed as compound 18, hydrobromide): 10% | Washing out time that returns the amplitude of the responses to the control value (AMPA/KA receptors; kainate-induced currents, after 20 µM): 3 to 5 min

CSC(=NCc1ccccc1)NCc1ccccc1 [Compound 11, S-Methyl-N-benzyl-N'-benzylisothio-carbamide]
Blockade of NMDA-induced currents (%) (NMDA receptors; at 0.5-30 µM): 0 at 0.5-30 µM % | Potentiation of kainate-induced currents (%) (AMPA/KA receptors; at 0.5-30 µM): 0 at 0.5-30 µM %

Br.CCOC(=O)CCSC(=NCc1ccccc1)NCc1ccccc1 [Compound 19, S-2-Ethoxycarbonyl-ethyl-N-benzyl-N'-benzylisothiocarbamide hydrobromide]
Blockade of NMDA-induced currents (%) (NMDA receptors; at 0.5-30 µM): 0 at 0.5-30 µM % | Potentiation of kainate-induced currents (%) (AMPA/KA receptors; at 0.5-30 µM): 0 at 0.5-30 µM %

Br.C=CCSC(=NCc1ccccc1)NCc1ccccc1 [Compound 16, S-Allyl-N-benzyl-N'-benzylisothiocarbamide hydrobromide]
Blockade of NMDA-induced currents (%) (NMDA receptors; at 0.5-30 µM): 0 at 0.5-30 µM % | Potentiation of kainate-induced currents (%) (AMPA/KA receptors; at 0.5-30 µM): 0 at 0.5-30 µM %

Cl.O=[N+]([O-])c1ccc(CSC(=NCc2ccccc2)NCc2ccccc2)cc1 [Compound 14, S-4-Nitrobenzyl-N-benzyl-N'-benzylisothiocarbamide hydrochloride]
Blockade of NMDA-induced currents (%) (NMDA receptors; at 0.5-30 µM): 0 at 0.5-30 µM % | Potentiation of kainate-induced currents (%) (AMPA/KA receptors; at 0.5-30 µM): 0 at 0.5-30 µM %

Br.C1=CC(SC(=NCc2ccccc2)NCc2ccccc2)CCC1 (stereo not shown) [Compound 17, S-2-Cyclohexenyl-N-benzyl-N'-benzylisothiocarbamide hydrobromide]
Blockade of NMDA-induced currents (%) (NMDA receptors; at 0.5 µM): 30-50% | Blockade of NMDA-induced currents (%) (NMDA receptors; at 2 µM): 100% | Potentiation of kainate-induced currents (%) (AMPA/KA receptors; at 10 µM): 0% at 10 µM | Potentiation of kainate-induced currents (%) (AMPA/KA receptors; at 0.5-1.0 µM): 60-100% at 0.5-1.0 µM

Nc1c2c(nc3ccccc13)CCCC2 [Tacrine, reference compound]
Blockade of NMDA-induced currents (%) (NMDA receptors; at 0.5-30 µM): 0 at 0.5-30 µM % | Potentiation of kainate-induced currents (%) (AMPA/KA receptors; at 0.5-30 µM): 0 at 0.5-30 µM %
